Results: patent publication US5817756A, “Pseudo- and non-peptide bradykinin receptor antagonists” (Scios Inc., priority 1995, dated 1998)
Starred links: 1 amine or outer side, 2 acyl side, 3 side chain; linkers in the order of their positions; H or OH if unused. Non-standard residues stand in square brackets, D forms with d. Residues, ends and D or L forms follow the SMILES beside them. Oic = O=C(O)[C@@H]1C[C@@H]2CCCC[C@@H]2N1; X10 = O=C(C(/C=C/CN[*:1])Cc1ccccc1)[*:2]; X5 = O=C(/C=C/c1cccc(CN[*:1])c1)[*:2]; X11 = O=C(/C=C/C1CCCCC1CN[*:1])[*:2]; X13 = O=C(CCc1cccc(CN[*:1])c1)[*:2]; X2 = O=C(/C=C/c1ccccc1CN[*:1])[*:2]; Hyp = O=C(O)[C@@H]1C[C@@H](O)CN1; X8 = O=C(CCc1ccccc1CN[*:1])[*:2]; dTic = O=C(O)[C@H]1Cc2ccccc2CN1

Biological target: T1, bradykinin receptor, guinea pig terminal ileum homogenate (Cavia porcellus, UniProt O70526)
T1 construct: from tissue; host or cells: terminal ileum of male Hartley guinea pigs, washed membrane homogenate
T1 sequence (O70526 1-372): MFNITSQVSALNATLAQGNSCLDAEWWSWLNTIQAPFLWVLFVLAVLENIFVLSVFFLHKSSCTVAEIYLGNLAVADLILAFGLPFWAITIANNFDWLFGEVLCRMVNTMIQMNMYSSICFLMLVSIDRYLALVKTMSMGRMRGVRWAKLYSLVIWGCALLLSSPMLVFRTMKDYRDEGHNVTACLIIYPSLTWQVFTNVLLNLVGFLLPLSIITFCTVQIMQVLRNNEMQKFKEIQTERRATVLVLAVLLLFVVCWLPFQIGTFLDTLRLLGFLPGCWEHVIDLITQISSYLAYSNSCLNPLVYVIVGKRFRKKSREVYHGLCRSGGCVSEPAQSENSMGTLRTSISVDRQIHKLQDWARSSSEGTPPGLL
Experiment: Guinea pig ileum binding of 3H-bradykinin
Conditions: Table 1, read-out: Radioligand Binding Guinea Pig
Experimental: Binding of ^3 H-bradykinin was performed using the method of D. C. Manning, R. Vavrek, J. M. Stewart, and S. H. Snyder, J. Pharmacol. Exp. Ther., (1986) 237:504. The tissues used in the binding assay were terminal ileum from male Hartley guinea pigs (150-350 g). After dissection, tissues were placed in 20 volume of ice-cold buffer A (25 mM TES containing 0.2 g/l of 1,10-phenanthroline adjusted of pH 6.8 with ammonium hydroxide) and homogenized using a Polytron Tissumizer at setting 6 for 15 seconds. The homogenate was centrifuged at 50,000×g for 10 minutes, the supernatant discarded, and the pellet resuspended in ice-cold buffer A by homogenization with the Polytron. Each tissue was homogenized and centrifuged three times. The final pellet was resuspended in buffer A containing bovine serum albumin (1 g/l) and Bacitracin (0.14 g/l) to a final volume of 170 ml/g of the original tissue weight. The binding assay consisted of […] in 12×75 mm polypropylene tubes: 50 μl ^3 H-bradykinin (20,000 dpm, ~0.3 nM in the final assay volume), 100 μl displacing drug in buffer A, and 750 μl tissue homogenate. Each tray contained tubes, to which no drug was added to measure maximum binding and tubes to which bradykinin (1 μM final concentration) had been added, to measure […]. Specific binding accounted for 96-98% total binding. Tubes were incubated for 90 minutes at ambient temperature. The assays were terminated by filtration over Whatman GF/B glass fiber filters that had been pretreated for 2 hours with polyethyleneimine (2 g/l) using a Brandel Tissue Harvester, followed by washing with 4×1 ml aliquots of ice-cold 50 mM Tris, pH 7.4. Filters were dissolved in Ready-Safe Fluor (Beckman) for at least 90 minutes before quantitation by liquid scintillation spectrometry. Kd values were determined using saturation binding and analysis by EBDA (G. A. MacPherson, J. Pharmacol. Methods (1985) 213), followed by LIGAND (P. J. Munson, D. Rodbard, Anal. Biochem. (1980) 220). Ki values were determined using competitive analysis followed by EBDA and LIGAND.

Question: With `N=C(N)NCCC[C@@H](N)C(=O)N[C@@H](CCCNC(=N)N)C(=O)N1CCC[C@H]1C(=O)N1C[C@H](O)C[C@H]1C(=O)NC/C=C/C(Cc1ccccc1)C(=O)N[C@@H](CO)C(=O)N1Cc2ccccc2C[C@@H]1C(=O)N1[C@H](C(=O)N[C@@H](CCCNC(=N)N)C(=O)O)C[C@@H]2CCCC[C@@H]21` (stereo partly shown) (H-[dR]RP[Hyp][X10]S[dTic][Oic]R-OH) as the compound, how does the Ki read?
Answer: 0.358 µM

Question: How did the Ki turn out when `C[C@H](NC(=O)/C=C/c1ccccc1CNC(=O)[C@H](CCCNC(=N)N)NC(=O)[C@H](N)CCCNC(=N)N)C(=O)N1Cc2ccccc2C[C@@H]1C(=O)N1[C@H](C(=O)N[C@@H](CCCNC(=N)N)C(=O)O)C[C@@H]2CCCC[C@@H]21` (H-[dR]R[X2]A[dTic][Oic]R-OH) was run?
Answer: 0.278 µM

Question: `N=C(N)NCCC[C@@H](N)C(=O)N[C@@H](CCCNC(=N)N)C(=O)NCc1ccccc1/C=C/C(=O)N[C@@H](Cc1ccccc1)C(=O)N[C@@H](CO)C(=O)N1Cc2ccccc2C[C@@H]1C(=O)N1[C@H](C(=O)N[C@@H](CCCNC(=N)N)C(=O)O)C[C@@H]2CCCC[C@@H]21` (H-[dR]R[X2]FS[dTic][Oic]R-OH) was tested. Which Ki did it give?
Answer: 1.27 µM

Question: For `N=C(N)NCCC[C@@H](N)C(=O)N[C@@H](CCCNC(=N)N)C(=O)NCc1cccc(/C=C/C(=O)N[C@@H](CO)C(=O)N2Cc3ccccc3C[C@@H]2C(=O)N2[C@H](C(=O)N[C@@H](CCCNC(=N)N)C(=O)O)C[C@@H]3CCCC[C@@H]32)c1` (H-[dR]R[X5]S[dTic][Oic]R-OH), which Ki is on record?
Answer: 0.496 µM

Question: For `N=C(N)NCCC[C@@H](N)C(=O)N[C@@H](CCCNC(=N)N)C(=O)NCc1ccccc1CCC(=O)N[C@@H](CO)C(=O)N1Cc2ccccc2C[C@@H]1C(=O)N1[C@H](C(=O)N[C@@H](CCCNC(=N)N)C(=O)O)C[C@@H]2CCCC[C@@H]21` (H-[dR]R[X8]S[dTic][Oic]R-OH), which Ki is on record?
Answer: 0.563 µM

Question: With `N=C(N)NCCC[C@@H](N)C(=O)N[C@@H](CCCNC(=N)N)C(=O)NCC1CCCCC1/C=C/C(=O)N[C@@H](CO)C(=O)N1Cc2ccccc2C[C@@H]1C(=O)N1[C@H](C(=O)N[C@@H](CCCNC(=N)N)C(=O)O)C[C@@H]2CCCC[C@@H]21` (stereo partly shown) (H-[dR]R[X11]S[dTic][Oic]R-OH) as the compound, how does the Ki read?
Answer: 0.638 µM

Question: How did the Ki turn out when `N=C(N)NCCC[C@@H](N)C(=O)N[C@@H](CCCNC(=N)N)C(=O)NCc1cccc(CCC(=O)N[C@@H](CO)C(=O)N2Cc3ccccc3C[C@@H]2C(=O)N2[C@H](C(=O)N[C@@H](CCCNC(=N)N)C(=O)O)C[C@@H]3CCCC[C@@H]32)c1` (H-[dR]R[X13]S[dTic][Oic]R-OH) was run?
Answer: 0.466 µM
